Results published in patent US7026469B2, “Compositions and methods of double-targeting virus infections and cancer cells” (Wake Forest University School of Medicine, priority 2000, dated 2006).
Where “and” joins values, the source holds several entries; their conditions need not be identical. Equal entries are not always repeated. Where two headings read alike, the source gives them in different places.

Tests used:
[1] = tested on: HIV-1; experiment: HIV-1 syncytial plaque assay in CEM-SS cells; assay type: cell-based
Experimental: (§1) The inhibitory effects of PC lipids, non-PC lipid-AZT conjugates, and double-targeting PC lipid-AZT conjugate compounds of the invention on replication of HIV-1 virus in cells was examined using the plaque assay procedure described in Kucera et al. (1990, AIDS Research and Human Retroviruses, 6:491). CEM-SS cells were seeded at 50,000 cells per milliliter in RPMI growth medium as a monolayer in 96-well dishes, inoculated with 50 to 100 plaque forming units of HIV-1 and overlaid with serial dilutions of either PC lipid, non-PC lipid-AZT conjugate, or PC-lipid-AZT conjugate in RPMI-1640 growth medium supplemented with 10% fetal bovine serum. The structures of the tested compounds are described in Table 1. AZT and PC lipids were used as positive controls. […] The cytotoxicity of PC lipids, non-PC lipid-AZT conjugates and double targeting PC lipid-AZT conjugates was assessed using the procedure described in Kucera et al. (1990, AIDS Res. And Human Retrovir., 6:496, and 1998, Antiviral Chemistry and Chemotherapy, 9:160). [drawing 16]
In the plaque assay, HIV-1 syncytial plaques are seen as large, multicellular foci (10 to 25 nuclei/syncytium) that appear either brown and granular or clear. Because the number of HIV-1 syncytial plaques was correlated with reverse transcriptase (RT) and p24 core antigen activity in the HIV-1 infected cell overlay fluids, the syncytial plaque assay could be used to quantify the amount of infectious virus. Reverse transcriptase activity was assayed according to the procedure described by Poeisz et al. (1980, Proc. Natl. Acad. Sci. U.S.A. 77:7415). The activity of p24 core antigen induced by HIV-1 infection of CEM-SS cells was measured spectrophotometrically using the commercial Coulter enzyme immunoassay (EIA).

[2] = Cytotoxicity (TC50) of the compounds tested for anti-HIV-1 activity; assay type: cell-based, human; conditions: human, CEM-SS cells
Experimental: as §1

[3] = tested on: AZT-resistant clinical isolates of HIV-1; experiment: microbe, parasite or virus in culture; assay type: cell-based; conditions: for EC50: mean of 2 to 4 independent tests
Experimental: as §1
Evaluation of the clinical isolates to the compounds was performed using the plaque assay procedure described herein in Example 1. The matched pairs of clinical isolates were obtained through the AIDS Research and Reference Reagent Program, NIH, Bethesda, Md.

[4] = tested on: HIV-1 persistently infected H9IIIB cells; experiment: Induction of defective HIV-1 in persistently infected H9IIIB cells (RT activity after infecting fresh CEM-SS cells); assay type: cell-based; conditions: RT activity in CEM-SS overlay medium after 7 or 9 days; H9IIIB cells treated with 1.0 μM compound for 14 or 11 days
Experimental: HIV-1 persistently infected H9IIIB cells were washed twice to remove extracellular HIV-1, resuspended in fresh growth medium with or without 1.0 μM of compound for a total of 14 days. During the treatment period, the cells were subcultured 1:3 three times a week. In addition, on days 3, 7 and 11, the cells were pelleted to remove extracellular HIV-1 before subculture in fresh growth medium with or without the compound. After 14 or 11 days of treatment, the virus was pelleted (100,000×g, 1 hr, 4 C.) from the overlay medium to remove free compound, resuspended in fresh medium without compound and assayed for RT activity. The virus suspension was normalized to 500,000 RT DPM and used to infect fresh CEM-SS cells. The infected CEM-SS cells were incubated for a total of 7 or 9 days, and the overlay medium was harvested and assayed for induction of RT activity. The % inhibition of RT activity was used as a measure of defective virus formation during the treatment period.

[5] = Oral administration of phospholipid-AZT conjugate in rodents (distribution, half-life); parameters: species or system rodents (mice); conditions: mouse, in vivo; in rodents; units given within the value; read-out: half-life of AZT alone
[6] = tested on: Friend leukemia virus; conditions: INK-11 compared with AZT alone; cited from earlier work
[7] = tested on: herpes simplex virus type 2; experiment: Herpes simplex virus type 2 plaque inhibition in Vero cells; assay type: cell-based; conditions: acyclovir in replicate tests; read-out: EC50 against herpes simplex virus type 2
Experimental: Proof-of-concept of the antiviral activity of the double-targeting PC lipid-AZT conjugate compounds of the invention with respect to herpes simplex virus type 2 was evaluated and compared with that of PC lipid alone and with acyclovir (positive controls). Serial dilutions of PC lipid, PC lipid-AZT conjugate compound, or acyclovir were evaluated for inhibition of the formation of herpes simplex virus type 2 plaques in Vero cells and EC50 values were calculated from the results obtained. Briefly, the tests for anti-herpes simplex virus (HSV) activity and cytotoxicity of the compounds were performed by seeding 8×10^4 monkey kidney cells (Vero) per ml of D-MEM with 10% fetal bovine serum (FBS) in each well of a 12-well dish. The cultures were incubated at 37° C. to form a complete monolayer. To measure anti-HSV activity and effective concentration50 (EC50) each cell monolayer was infected with HSV diluted in PBS-A containing about 100 plaque forming units (PFU) per 0.1 ml. After virus attachment (1 hr., 37° C.) the infected monolayers were overlaid with E-MEM containing 2% FBS and 0.5% methyl cellulose with or without added serial concentrations of test compound. […] The EC50 values were calculated using a computer generated program.

[8] = Cytotoxicity in Vero cell monolayers (cell morphology); assay type: cell-based, monkey; conditions: monkey, Vero cell monolayers (monkey kidney cells), 48 hours at 37° C., lowest concentration changing morphology in at least 25% of the cells, read-out: Cytotoxicity (TC50)
Experimental: To measure cytotoxicity of the compounds, the cell monolayers (described above) were treated with a serial concentration of test compound for 48 hours at 37° C. and visually examined after crystal violet staining by light microscopy for changes in cell morphology (cell rounding, shrinking, detachment) compared to an untreated control culture.

Cc1cn([C@H]2C[C@H](N=[N+]=[N-])[C@@H](CO)O2)c(=O)[nH]c1=O [AZT, 3′-azido-3′-deoxythymidine, reference compound]
Differential Selectivity ([1]; DS = ratio of TC50 for cytotoxicity to EC50 for anti-HIV activity): 411
EC50 ([1]; Human immunodeficiency virus 1, CEM-SS, 120 h, read-out: Anti-HIV-1 Activity (EC50)): 0.009 µM
CC50 [2]: 3.7 µM
EC50 ([3]; Human immunodeficiency virus 1, read-out: EC50 Pre-AZT G-762, pre-AZT isolate, patient code G-762): 0.001 µM
EC50 ([3]; Human immunodeficiency virus 1, read-out: EC50 Pre-AZT H112-2, pre-AZT isolate, patient code H112-2): 0.002 µM
Fold-Increase (G-762 to G-691) ([3]; post-AZT G-691 versus pre-AZT G-762): 165
fold increase in AZT-resistance among HIV-1 clinical isolates ([3]; text summary over both isolate pairs): 680- to 1,100 fold
DPM-Bkg [4]: 5416 DPM and 6573 DPM
half-life [5]: 30 to 60 min
suppression against RT activity [6]: 98%

Nc1nc2c(ncn2COCCO)c(=O)[nH]1 [Acyclovir, reference compound]
EC50 [7]: 12.5 µM and 14.5 µM and 6.67 µM
CC50 at 48 h [8]: > 20 µM
